Test results: patent US20100292292A1, “Treatment of Neurodegenerative Diseases Using Indatraline Analogs” (LINK MEDICINE CORPORATION, priority 2007, published 2010)
Entries after “also recorded” stand apart in the source; their conditions may differ.

Columns and labels:
[1] = system: α-synuclein-induced retinal degeneration in transgenic Drosophila (human A30P α-synuclein); assay: Drosophila retinal assay; assay type: in vivo; details: transgenic Drosophila expressing human A30P α-synuclein in retina, drug in food
Description: Human A30P α-synuclein expression was directed to the retina with the glass multimer reporter (GMR) promoter. The transgene induces progressive retinal degeneration. Dry food (Formula 4-24; Carolina Biological Supply) was rehydrated with water or an aqueous solution of drug. Drug concentration refers to the final concentration of compound in the aqueous solution. Transgenic female flies less than 12-hours-old were placed on either untreated or drug-embedded food. For analysis of retinal degeneration, fly heads were annealed to a glass microscope, then eyes were transilluminated following optical neutralization of the corneas with immersion oil and examined under a 100× lens (Franceschini, N., Pupil and pseudopupil in the compound eye of Drosophila. In Information processing in the visual system of Drosophila, Wehner, R., Ed. Springer: Berlin, 1972; pp 75-82; incorporated here in by reference). For quantitation, 20-50 ommatidia per eye of at least 12 eyes were examined per group. The percent normal ommatidia was calculated for each eye and averaged for each sample set. Indatraline suppressed α-synuclein-induced retinal degeneration (FIG. 26A).

alpha-synuclein = alpha-synuclein (Homo sapiens, UniProt P37840); assay: Solution NMR binding studies
Description: Importantly, stabilization of such off-pathway conformers can reduce the rate of α-synuclein fibrillization. For instance, sequence changes that promote formation of helical conformers also reduce the rate of α-synuclein fibrillization. A novel screen was devised to identify small molecules capable of promoting off-pathway conformers of α-synuclein. A screen of 640 central nervous system (CNS-active) compounds, including many approved CNS drugs, identified an active compound, indatraline (INDAT), a monoamine reuptake inhibitor that has been widely used as a research tool.

[2] = target: T1, purified recombinant human α-synuclein (Homo sapiens, UniProt P37840); assay: α-synuclein aggregation in aqueous solution (Thioflavin T fluorescence, fluorescence polarization); assay type: biochemical; details: α-synuclein 70 μM, 20 mM Bis-tris propane pH 7.4, 100 mM LiCl, 37° C., gentle agitation, Thioflavin T fluorescence and/or fluorescence polarization
Description: Compounds were incubated with purified recombinant human α-synuclein (70 μM) in an aqueous buffer system (20 mM Bis-tris propane, pH 7.4, 100 mM LiCl) at 37° C. with gentle agitation. Structure formation was monitored by Thioflavin T fluorescence and/or fluorescence polarization. Thioflavin T fluorescence can be used to measure aggregation of amyloidogenic proteins, including α-synuclein (excitation, 440 nm; emission, 495 nm) (Naiki, H.; Higuchi, K.; Hosokawa, M.; Takeda, T., Fluorometric determination of amyloid fibrils in vitro using the fluorescent dye, thioflavin T1. Anal Biochem 1989, 177, (2), 244-9; incorporated herein by reference). Average molecular size was monitored by fluorescence polarization using human α-synuclein covalently conjugated to Alexa Fluor 594 (excitation, 546 nm; emission, 620 nm) (Luk, K. C.; Hyde, E. G.; Trojanowski, J. Q.; Lee, V. M., Sensitive fluorescence polarization technique for rapid screening of alpha-synuclein oligomerization/fibrillization inhibitors. Biochemistry 2007, 46, (44), 12522-9; incorporated herein by reference).

[3] = target: T1, purified recombinant human α-synuclein; assay: α-synuclein structure formation/aggregation in the presence of HFIP (Thioflavin T fluorescence, fluorescence polarization); assay type: binding; details: α-synuclein 20 μM, 25 mM Tris pH 8.0, 3.1% HFIP, room temperature, compound 50-400 μM, Thioflavin T fluorescence and/or fluorescence polarization
Description: HFIP induces rapid structure formation and aggregation of α-synuclein (Munishkina et al., Biochemistry 42:2720-30, 2003; Maiti, Apetri et al., J Am Chem Soc, 126:2399-408, 2004; each of which is incorporated herein by reference). Compounds were incubated with purified recombinant human α-synuclein (20 μM) in a buffer containing HFIP (25 mM Tris, pH 8.0, 3.1% HFIP) at room temperature. Structure formation was monitored by Thioflavin T fluorescence and fluorescence polarization. Thioflavin T fluorescence can be used to measure aggregation of amyloidogenic proteins, including α-synuclein (excitation, 440 nm; emission, 495 nm) (Naiki et al., Anal. Biochem., 177:244-9, 1989; Conway et al., Biochemistry, 39:2552-63, 2000; each of which is incorporated herein by reference). Average molecular size was monitored by fluorescence polarization using human α-synuclein covalently conjugated to Alexa Fluor 594 (excitation, 546 nm; emission, 620 nm). Assays were performed in a 384-well plate and readings taken directly from each well over time.

[4] = system: dopaminergic neurons (primary rat embryonic midbrain culture) infected with lentivirus encoding human A53T α-synuclein; assay: Primary neuronal toxicity assay; assay type: cell-based; details: for decrease of α-synuclein neurotoxicity in dopaminergic neurons (TH+ cells): E17 rat midbrain culture, A53T α-synuclein lentivirus, 3 days treatment
Description: Indatraline decreased α-synuclein neurotoxicity in dopaminergic neurons. Midbrain cultures will be prepared from E17 rat ventral mesencephalon as described in a published protocol (Xu, J.; Kao, S. Y.; Lee, F. J.; Song, W.; Jin, L. W.; Yankner, B. A., Dopamine-dependent neurotoxicity of alpha-synuclein: a mechanism for selective neurodegeneration in Parkinson disease. Nat Med 2002, 8, (6), 600-6; incorporated herein by reference). Cultured cells were infected with a recombinant lentivirus encoding human A53T α-synuclein (A53T) or a control virus (none). Cells were treated with various concentrations of indatraline (black bars) for 3 days. Cells were then fixed and immunostained for Microtubule-associated protein 2, which stains all neurons, and Tyrosine Hydroxylase, a marker for dopaminergic neurons. Toxicity of A53T α-synuclein toward dopaminergic neurons was determined by calculating the percentage neurons positive for tyrosine hydroxylase (TH^+ cells).

| Structure (SMILES) | suppression of α-synuclein-induced retinal degeneration (percent normal ommatidia) [1] | suppression of α-synuclein-induced retinal degeneration (percent normal ommatidia) ([1]; listed as indatraline) | binding site on alpha-synuclein by solution NMR (alpha-synuclein) | delay of α-synuclein aggregation in aqueous solution [2] | delay of α-synuclein aggregation in aqueous solution ([2]; listed as indatraline) | binding to α-synuclein and effect on the rate of structure formation/aggregation in the presence of HFIP [3] | binding to α-synuclein and effect on the rate of structure formation/aggregation in the presence of HFIP ([3]; listed as indatraline) | decrease of α-synuclein neurotoxicity in dopaminergic neurons (TH+ cells) [4] | decrease of α-synuclein neurotoxicity in dopaminergic neurons (TH+ cells) ([4]; listed as indatraline) | IC50 ([4]; Neuron, primary rat embryonic midbrain culture, FIG. 26B, read-out: IC50, reduction of alpha-synuclein toxicity in dopaminergic neurons) [µM] |
| --- | --- | --- | --- | --- | --- | --- | --- | --- | --- | --- |
| CN[C@@H]1C[C@@H](c2ccc(Cl)c(Cl)c2)c2ccccc21 [Indatraline, indatraline] | suppresses α-synuclein-induced retinal degeneration; also recorded: decreases α-synuclein-mediated retinal degeneration | reduced the toxicity of alpha-synuclein; also recorded: suppress α-synuclein-induced retinal degeneration | binds at a sequence near the C-terminus of alpha-synuclein | delay the initiation of α-synuclein aggregation | reduced the rate of alpha-synuclein fibrillization (and nucleation); also recorded: delays aggregation of α-synuclein in a dose-dependent manner | bind to α-synuclein and affect the rate of protein aggregation | binds to α-synuclein and affects the rate of structure formation | diminished toxicity of A53T α-synuclein toward dopaminergic neurons in a dose-dependent manner; also recorded: decreases α-synuclein neurotoxicity | reduced the toxicity of alpha-synuclein; also recorded: decrease α-synuclein neurotoxicity | ~0.5 |
| CN(C)C1CC(Cc2ccc(Cl)c(Cl)c2)c2ccccc21 (stereo not drawn) [LNK-122] |  |  |  |  |  | binds to α-synuclein and affects the rate of structure formation; also recorded: bind to α-synuclein and affect the rate of protein aggregation |  |  |  |  |
| c1ccc(CNCC2CC(c3ccccc3)c3ccccc32)cc1 (stereo not drawn) [LNK-1521] |  |  |  |  |  | bind to α-synuclein and affect the rate of protein aggregation |  |  |  |  |
